“Also recorded” adds a separate entry of the source. Non-standard residues stand in square brackets, D forms with d. Residues, ends and D or L forms follow the SMILES beside them. *: point of attachment. Lauroyl = CCCCCCCCCCCC(=O)*; NH(CH2)4NH2 = NCCCCN*
Key:
[1] = test system: S. brevitalea DSM 7029 wild type; test: Growth curve of DSM 7029 wild type with compounds (Bioscreen C); format: cell-based, Schlegelella brevitalea DSM 7029; details: CYMG medium
Protocol: The growth curve was tested by Bioscreen C (Labsystems, Finland) as follow. Overnight culture was inoculated into 400 μL fresh CYMG medium in the ratio of 1:100 (the concentration of compounds was 0.1 μg/μL) and shook in normal speed. The OD600 value was gained in every hour for 42 h in total. Biofilm formation was measured at 18 h and 36 h respectively, as reported previously. In brief, the free-floating cells were removed, and the microtitre plate was washed with PBS (pH 7.4) after incubation for 18 h and 36 h. The biofilm was stained by adding 200 µL of crystal violet (0.1%) solution. Crystal violet solution was removed after 15 min and 200 µL of ethanol (95%) was added. The absorbance at OD600 was read using a microplate reader (Infinite M200, Tecan, Männedorf, Switzerland). Meanwhile, free-floating cells were used to test the secretion of pigment. The bacteria were removed and the supernatant was measured at OD600.

native host DSM 7029 = test: Inhibition zone test on the native host DSM 7029; format: cell-based, Schlegelella brevitalea DSM 7029; details: same method as for the seven tested strains
Excerpt: The two human acute lymphoblastic leukemia cells K562 and Kasumi, two human breast adenocarcinoma cells MCF7 and MDA-MB-231, human hepatoma cell HepG-2, human lung adenocarcinoma cell A549, human gastric cancer cell SGC-7901, human colon cancer cell HCT-116, human ovarian cancer cell line SKOV3, or human lung epithelial normal cell 2B were obtained from Beyotime Biotechnology and utilized to test the cytotoxicity of compounds by MTT assays as previous study. The anti-inflammatory effect of the compounds was detected by the influence on the increase in the level of nitric oxide caused by lipopolysaccharide (LPS) based on the classic Griess method. RAW 264.7 cells (Shanghai Institutes for Biological Science) were seeded in 96-well plates and incubated for 24 h. Then, cells were treated with compounds 29, 29a, 31, and 31a (0-80 μM) for 30 min, followed by co-treatment with LPS ([…]) for another 24 h. The Nitric Oxide assay kit with Griess reagents (Beyotime, Lot: S0021, Shanghai, China) was used to examine cellular supernatant nitrite accumulation, which represents cellular NO levels. The OD value of 540 nm absorbance was detected with a microplate reader. Their authentication in the laboratory was performed regularly based on morphology and gene/protein expression. […]

[2] = test system: human gastric cancer cell SGC-7901; test: cells; format: cell-based; details: 24 h
Outline: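 Cytotoxicity against the listed human lines (Kasumi leukemia, HepG-2 hepatoma, SGC-7901 gastric, normal lung epithelial 2B) measured by MTT assay following a previously described protocol. Cell identity checked regularly by morphology and gene/protein expression.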

[3] = test system: human colon cancer cell HCT-116; test: cells; format: cell-based; details: 24 h
Outline: (§1)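 Cells were exposed to compounds and viability was then quantified by MTT assay, per an earlier published method. Panel included leukemia Kasumi, hepatoma HepG-2, gastric SGC-7901 and normal lung epithelial 2B cells.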

[4] = test system: human lung epithelial normal cell 2B; test: cells; format: cell-based; details: 24 h
Outline: (§2)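 Compound cytotoxicity is assessed with the MTT method in human cancer cells and normal 2B lung epithelial cells.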

[5] = test system: human hepatoma cell HepG-2; test: cells; format: cell-based; details: 24 h
Outline: as §2

[6] = test system: human breast adenocarcinoma cells MDA-MB-231; test: cells; format: cell-based; details: 24 h
Outline: as §1

[7] = test system: human breast adenocarcinoma cells MCF7; test: cells; format: cell-based; details: 24 h
Outline: as §2

[8] = test system: human acute lymphoblastic leukemia cells K562; test: cells; format: cell-based; details: 24 h
Outline: as §2

[9] = test system: S. brevitalea DSM 7029 wild type; test: Biofilm formation of DSM 7029 wild type with compounds (crystal violet); format: cell-based, Schlegelella brevitalea DSM 7029
Outline: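 CYMG medium inoculated 1:100 from overnight culture with compounds at 0.1 μg/μL; OD600 read hourly for 42 h with shaking. Biofilm quantified at 18 h and 36 h by 0.1% crystal violet staining, 95% ethanol elution, OD600. Pigment secretion measured as OD600 of cell-free supernatant.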

[10] = test system: human lung adenocarcinoma cell A549; test: MTT cytotoxicity assay, A549; format: cell-based; details: 24 h
Outline: as §1

PvdQ-like acylase GdnD = test: Deacylation by acylase GdnD (cell lysate, LC-MS); format: biochemical, Schlegelella brevitalea DSM 7029; details: 100 μL E. coli cell lysate with GdnD, 5 μL 10 mM substrate, 30 °C; 7 and 8: 4 h, 16 h, 27 h; other substrates 16 h; boiled lysate as control
Protocol: The hydrolysis function of PvdQ-like acylase GdnD was tested. GdnD is predicted to be a periplasmic protein by PSORTb[13]. The collected pellet from 50 mL LB dissolved with 8 mL buffer C (50 mM Tris, 300 mM NaCl, 5 mM MgCl2, pH 7.6), and lysed by cell disruption. Then, one hundred microliter of the cell lysate was incubated with 5 μL 10 mM substrates 7 and 8 for 4 h, 16 h, and 27 h at 30 °C. The negative control was boiled cell lysate. The other substrates (13, 14, 15, 16, and 17) incubated with the cell lysate dealt for 16 h at 30 °C. Then, the reaction was stopped by the addition of the 100 μL MeOH, and the final mixture was checked by LC‒MS analysis (5%‒95% ACN in 15 min) according to the above condition.

[11] = relative to wild type treated with H2O = 100%, crystal violet 0.1%, OD600, mean of n = 3

CCCCCCCCCCCC(=O)N[C@H](CCSC)C(=O)N[C@H](CC(N)=O)C(=O)N1CCC[C@H]1C(=O)N[C@H](C(=O)N[C@H](Cc1ccccc1)C(=O)N1CCC[C@H]1C(=O)N[C@@H](Cc1c[nH]c2ccccc12)C(=O)N[C@@H](C(=O)N[C@@H](C)C(=O)N[C@H](C)C(=O)N[C@@H](CO)C(=O)N[C@@H](C)C(=O)NCCCCN)C(C)C)C(C)C [Compound 7, Glidonin G] (Lauroyl-[dM][dN]PV[dF]PW[dV]A[dA]SA-{NH(CH2)4NH2})
effect on growth of DSM 7029 wild type in words ([1]; compound 0.1 μg/μL, OD600 every hour for 42 h, Bioscreen C): weak inhibition of growth; also recorded: obviously inhibit the growth | OD600 of wild type DSM 7029 with addition of compounds ([1]; control OD600 0.6): 0.4 | inhibition of native host DSM 7029, inhibition zone method (native host DSM 7029): no inhibition | IC50 [2]: > 20 µM | IC50 [3]: > 20 µM | IC50 [4]: 11.7 ± 1.5 µM | IC50 [5]: 8.3 ± 0.57 µM | IC50 [6]: 4.76 ± 0.79 µM | IC50 [7]: > 20 µM | IC50 [8]: 13.5 ± 4.44 µM | effect on biofilm formation of DSM 7029 wild type in words ([9]; crystal violet staining): increased biofilm formation | biofilm formation 18 h, Average [9, 11]: 152.732% | biofilm formation 36 h, Average [9, 11]: 138.926% | IC50 [10]: 7.64 ± 1.11 µM | deacylation by GdnD, nonacylated product by LC-MS (PvdQ-like acylase GdnD): nonacylated products 1 and 2 were detected
